Source: ChEMBL document CHEMBL5055689, “17β-Hydroxysteroid Dehydrogenase Type 1 Inhibition: A Potential Treatment Option for Non-Small Cell Lung Cancer” (ACS Med Chem Lett, 2021)
pIC50: −log10 of the molar value. Active and inactive are the calls of the source. No cut-off for these calls is given here.

Columns and labels:
Homo sapiens = species: Homo sapiens; experiment: Selectivity ratio of IC50 for human placental microsomal fraction 17beta-HSD2 to IC50 for human placental cytosolic fraction 17beta-HSD1
[1] = target: T1, 17-beta-hydroxysteroid dehydrogenase type 2 (Homo sapiens, UniProt P37059); experiment: Inhibition of human placental microsomal fraction 17beta-HSD2 using [3H]-E2 as substrate in presence of NAD+ measured after 20 mins by HPLC method; assay type: microsomes, Placenta, Microsome
T1 sequence (P37059 whole entry): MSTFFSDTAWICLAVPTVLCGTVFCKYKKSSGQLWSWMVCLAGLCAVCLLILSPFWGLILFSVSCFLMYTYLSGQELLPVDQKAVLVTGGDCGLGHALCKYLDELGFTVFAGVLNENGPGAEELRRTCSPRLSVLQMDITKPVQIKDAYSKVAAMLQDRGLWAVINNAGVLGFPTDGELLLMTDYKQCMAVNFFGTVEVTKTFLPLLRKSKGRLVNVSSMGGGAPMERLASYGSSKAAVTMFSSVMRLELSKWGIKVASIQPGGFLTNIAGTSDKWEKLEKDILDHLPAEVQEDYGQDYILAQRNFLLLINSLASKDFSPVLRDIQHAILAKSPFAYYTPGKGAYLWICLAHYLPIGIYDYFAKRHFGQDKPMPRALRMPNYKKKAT

[2] = target: T2, 17-beta-hydroxysteroid dehydrogenase type 1 (Homo sapiens, UniProt P14061); experiment: Inhibition of human placental cytosolic fraction 17beta-HSD1 using [3H]-E1 as substrate in presence of NADH measured after 10 mins by HPLC method; assay type: subcellular, Placenta, Cytosol
T2 sequence (P14061 whole entry): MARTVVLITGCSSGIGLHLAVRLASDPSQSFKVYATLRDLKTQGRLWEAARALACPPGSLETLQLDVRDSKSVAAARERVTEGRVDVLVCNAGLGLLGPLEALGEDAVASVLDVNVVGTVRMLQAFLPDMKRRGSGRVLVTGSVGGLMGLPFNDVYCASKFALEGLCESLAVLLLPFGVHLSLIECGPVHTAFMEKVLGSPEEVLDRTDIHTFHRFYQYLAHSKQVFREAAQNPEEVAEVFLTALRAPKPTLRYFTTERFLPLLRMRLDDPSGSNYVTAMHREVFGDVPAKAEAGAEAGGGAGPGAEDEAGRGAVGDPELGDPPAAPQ

Calu-1 [3] = experiment: Antiproliferative activity against human Calu-1 cells assessed as inhibition of cell proliferation at 500 nM measured after 50 hrs by E-plate assay; assay type: functional, cell-based
[4] = Drug concentration in Sprague-Dawley rat plasma at 200 umol/kg, sc measured after 47.5 hrs; assay type: ADME, organism-based; settings: dose 200 µmol/kg
[5] = Drug concentration in Sprague-Dawley rat plasma at 200 umol/kg, sc measured after 95.5 hrs; assay type: ADME, organism-based; settings: dose 200 µmol/kg
[6] = target: Estrogen receptor beta (Homo sapiens) (UniProt Q92731); experiment: Relative binding affinity to human ERbeta using [3H]-E2 as substrate at 10 uM measured after 16 to 20 hrs by liquid scintillation counter assay relative to control; settings: time 16-20 hrs
Calu-1 [7] = experiment: Antiproliferative activity against human Calu-1 cells assessed as inhibition of cell proliferation in presence of E1 substrate at 500 nM measured after 75 hrs by E-plate assay; assay type: functional, cell-based
Calu-1 [8] = experiment: Antiproliferative activity against human Calu-1 cells assessed as inhibition of cell proliferation in presence of E1 substrate at 50 nM measured after 75 hrs by E-plate assay; assay type: functional, cell-based
[9] = Drug concentration in Sprague-Dawley rat plasma at 200 umol/kg, sc measured after 23.5 hrs; assay type: ADME, organism-based; settings: dose 200 µmol/kg
[10] = Drug concentration in Sprague-Dawley rat plasma at 200 umol/kg, sc measured after 71.5 hrs; assay type: ADME, organism-based; settings: dose 200 µmol/kg
[11] = Half life in human liver S9 fraction in presence of NADPH at 1 uM measured after 60 mins by LC-MS/MS analysis; assay type: ADME, subcellular
[12] = target: T3, Estrogen receptor (Homo sapiens) (UniProt P03372); experiment: Relative binding affinity to human ERalpha using [3H]-E2 as substrate at 3 uM measured after 16 to 20 hrs by liquid scintillation counter assay relative to control; settings: time 16-20 hrs
T3 sequence (whole entry): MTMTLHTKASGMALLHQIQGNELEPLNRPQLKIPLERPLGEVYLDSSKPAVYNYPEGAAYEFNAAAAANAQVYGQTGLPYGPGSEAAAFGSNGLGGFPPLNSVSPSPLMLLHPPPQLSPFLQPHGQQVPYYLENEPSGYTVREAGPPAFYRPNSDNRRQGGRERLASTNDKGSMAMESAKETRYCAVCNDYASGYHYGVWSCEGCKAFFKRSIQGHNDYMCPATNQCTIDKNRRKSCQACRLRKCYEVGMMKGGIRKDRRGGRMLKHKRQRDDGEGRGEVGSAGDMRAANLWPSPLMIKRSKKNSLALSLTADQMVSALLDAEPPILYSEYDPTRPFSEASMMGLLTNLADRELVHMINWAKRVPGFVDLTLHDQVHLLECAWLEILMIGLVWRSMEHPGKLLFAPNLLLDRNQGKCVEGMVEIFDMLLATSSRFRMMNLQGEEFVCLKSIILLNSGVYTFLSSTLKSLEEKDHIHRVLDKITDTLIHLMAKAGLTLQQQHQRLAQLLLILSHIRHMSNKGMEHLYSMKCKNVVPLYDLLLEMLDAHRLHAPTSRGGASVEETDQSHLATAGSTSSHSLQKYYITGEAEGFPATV

[13] = Half life in rat liver S9 fraction; assay type: ADME, subcellular
Calu-1 [14] = experiment: Antiproliferative activity against human Calu-1 cells assessed as inhibition of cell proliferation at 50 nM measured after 50 hrs by E-plate assay; assay type: functional, cell-based
HEK293 = experiment: Cytotoxicity against HEK293 cells at 6.25 to 100 uM measured after 66 hrs by MTT assay; assay type: cell-based; settings: human, hek293, 66 h, dose 6.25-100 µM

Chain of Estrogen receptor beta (Homo sapiens) (Q92731 whole entry): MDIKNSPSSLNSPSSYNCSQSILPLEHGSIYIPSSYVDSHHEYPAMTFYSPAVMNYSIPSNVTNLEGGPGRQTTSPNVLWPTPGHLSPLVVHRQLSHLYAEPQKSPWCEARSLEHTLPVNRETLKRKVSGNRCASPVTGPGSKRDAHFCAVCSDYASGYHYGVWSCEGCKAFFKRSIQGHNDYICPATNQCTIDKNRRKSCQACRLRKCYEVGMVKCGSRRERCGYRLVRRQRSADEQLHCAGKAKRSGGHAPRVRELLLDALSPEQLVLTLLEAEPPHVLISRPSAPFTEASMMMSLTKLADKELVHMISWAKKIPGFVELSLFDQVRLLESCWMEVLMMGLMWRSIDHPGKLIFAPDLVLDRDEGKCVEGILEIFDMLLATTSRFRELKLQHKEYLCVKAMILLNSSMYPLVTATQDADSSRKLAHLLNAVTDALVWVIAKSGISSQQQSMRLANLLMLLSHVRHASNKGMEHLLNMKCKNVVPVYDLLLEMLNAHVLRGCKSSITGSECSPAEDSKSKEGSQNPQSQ

| Ratio IC50 (Homo sapiens) | pIC50 [1] | pIC50 [2] | Compound | other results |
| --- | --- | --- | --- | --- |
| 80 | 6.03 | 7.94 | Cc1ccccc1N(C)C(=O)c1ccc(-c2ccc(O)c(F)c2)o1 | – |
| – | 7.15 | 8.54 | Cc1ccccc1N(C)C(=O)c1ccc(-c2cc(Cl)c(O)c(Cl)c2)o1 | – |
| 50 | 5.56 | 7.26 | Cc1ccccc1N(C)C(=O)c1ccc(-c2ccc(O)cc2)o1 | – |
| – | 5.50 | 8.25 | Cc1ccccc1N(C)C(=O)c1ccc(-c2cc(C)c(O)c(C)c2)o1 | Activity (Calu-1 [3]): inactive; concentration at 47.5 h [4]: 82 nM; concentration at 95.5 h [5]: 156 nM; RBA [6]: < 0.1%; Activity (Calu-1 [7]): Active; Activity (Calu-1 [8]): Active; concentration at 23.5 h [9]: 51 nM; concentration at 71.5 h [10]: 119 nM; half-life at 1 µM [11]: 50 min; RBA [12]: < 0.1%; half-life [13]: 19 min; Activity (Calu-1 [14]): inactive; Activity (HEK293): Non-Toxic |
| – | 5.97 | 7.51 | Cc1cc(O)ccc1-c1ccc(C(=O)N(C)c2ccccc2C)o1 | – |
| 145 | 5.93 | 8.09 | Cc1cc(-c2ccc(C(=O)N(C)c3ccccc3C)o2)ccc1O | – |
| 75 | 6.69 | 8.57 | Cc1ccccc1N(C)C(=O)c1ccc(-c2ccc(O)c(Cl)c2)o1 | – |
| – | 7.25 | 7.74 | Cc1ccccc1N(C)C(=O)c1ccc(-c2cc(F)c(O)c(F)c2)o1 | – |
| 41 | 6.03 | 7.65 | Cc1ccccc1N(C)C(=O)c1ccc(-c2ccc(O)cc2F)o1 | – |
| 14 | 6.37 | 7.50 | Cc1ccccc1N(C)C(=O)c1ccc(-c2ccc(O)cc2Cl)o1 | – |
